Key:
[1] = test system: C. difficile cells harbouring the codA cassette; experiment: functionality testing of codA cassette for counter selection on minimal medium with FC; assay type: cell-based; conditions: 100 μg/ml FC, modified minimal medium, codA cassette on pMTL960 plasmid, FIG. 4
From the text: (§1) The codA expression cassette was isolated from the vector used by Fox et al., Gene Therapy. (1996) 3:173-178 and cloned into pMTL960. This plasmid was used to test the functionality of the codA gene in E. coli and C. difficile.

[2] = test system: E. coli harbouring the codA construct; experiment: functionality testing of codA gene in E. coli with and without FC; assay type: cell-based; conditions: codA cassette on pMTL960 plasmid, with vs without FC
From the text: as §1

Nc1nc(=O)[nH]cc1F [FC, 5-fluorocytosine]
growth of cells expressing codA on minimal medium containing FC [1]: did not grow
growth of E. coli carrying the codA construct in presence of FC [2]: permitting growth in the absence of FC but not in the presence of FC

Reference: patent US20120100616A1, “METHOD OF DOUBLE CROSSOVER HOMOLOGOUS REC[…] CLOSTRIDIA” (THE UNIVERSITY OF NOTTINGHAM, priority 2009, published 2012)
